Reference: patent US11746328B2, “Methods and systems for functional maturation of iPSC and ESC derived cardiomyocytes” (Agilent Technologies, Inc., priority 2017, dated 2023)

Experiments:
iPSC cardiomyocytes = test: Inotropic compound test on iPSC cardiomyocytes, xCELLigence RTCA CardioECR (Example V); assay type: cell-based; details: 30 minutes post compound addition; for beating rate: FIG. 6B; for beating amplitude (positive inotropic effect): FIG. 6A
Protocol: The functional maturation of iPSC cardiomyocytes from Example III was tested using inotropic compounds. Results are shown in FIG. 6A-B. In particular, iPSC cardiomyocytes were seeded in the wells of the CardioECR Plate (E-Plate CardioECR 48) for approximately 7 days until they formed a synchronous, stable beating monolayer. The cells were then electrically paced at 1 Hz, 1.5 Hz and 2 Hz for 1 week respectively (week 1: 1 Hz pacing; week 2: 1.5 Hz pacing; week 3: 2 Hz pacing). After pausing the 2 Hz pacing, cell media was replaced with 90 μL of fresh pre-warmed media the night before compound addition. The cells were then continuously paced for additional 8 hours at 2 Hz. The electrical pacing was terminated 5 hours prior to compound addition to ensure that cells would generate a stable beating rate and beating amplitude for treatment. The baseline beating activity was recorded for 20 seconds every 5 minutes up to 30 minutes immediately prior to compound addition. 10 μL of 10× compound solution was then added to the wells of CardioECR plate using a multichannel pipette. The cell response to the compound was recorded for 20 seconds every 2 minutes immediately after compound exposure using CardioECR system. The cell beating activity, including beating rate and beating amplitude, was evaluated at 30 minutes post compound addition.

[1] = system: iPSC-derived cardiomyocytes; test: Inotropic compound screening on functionally matured iPSC-derived cardiomyocytes, xCELLigence RTCA CardioECR (Example VI, FIG. 7, FIG. 8); assay type: cell-based; details: for beating rate: FIG. 7B
Protocol: Cell monolayer preparation. The iPSC-derived cardiomyocytes were seeded at the optimal seeding density in the wells of E-plate CardioECR 48, which were pre-coated with substrate. The attachment, growth and beating activity of the cells were recorded after cell seeding in real-time using xCELLigence RTCA CardioECR station, which was placed in a 37° C. tissue culture incubator. Medium change was performed every other day.
Induction of functionally mature iPSC-derived cardiomyocytes. The electrical pacing was initiated and applied to the cell monolayer after a stable and robust beating activity of iPSC-derived cardiomyocytes is observed using xCELLigence RTCA cardioECR system. The iPSC-derived cardiomyocytes were then electrically paced at 1 Hz, 1.5 Hz and 2 Hz for 1 week respectively using xCELLigence RTCA CardioECR system. The pulse intensity and pulse duration was optimized before each pacing frequency and continuously applied to the cells. The cells were confirmed to beat at the same frequency as the pacing frequency under the pacing condition. Medium change was performed every day during chronic pacing procedure.
Inotropic compound screening. After completion of functional maturation of cardiomyocytes over the course of ramping up pacing process for 3 weeks, the inotropic compound screening was conducted. The old media was replaced with 90 μL of fresh pre-warmed media the night before compound addition. The cells will were continuously paced for an additional 12 hours at 2 Hz using the CardioECR system. The electrical pacing was terminated 6 hours prior to compound application to ensure that cells generated stable beating rate and beating amplitude for treatment. The cell beating activity is monitored and recorded in real-time on the CardioECR system.
The effective concentration ranges for the test substances were determined. The compound solution is prepared as follows. The compounds are dissolved in the appropriate solvent. If DMSO is used as the solvent, dissolve the compound in a high stock concentration if possible (ideally more than 1000-fold of the highest test concentration) and store at −20° C. Serial dilutions of compounds are prepared 1000× concentrated in appropriate solvent (DMSO or H2O). Diluted compounds are transferred to the wells of a V-bottom microtiter plate for further dilution in culture medium (10× concentrated).
The baseline of beating activity is recorded for 20 seconds every 5 minutes up to 30 minutes immediately prior to compound addition on the CardioECR system. 10 μL of 10× compound solution is added to the wells of CardioECR plate using multichannel pipette. The cell response to the compound is recorded for 20 seconds every 2 minutes immediately after compound exposure using CardioECR system. The cell beating activity, including beating rate and beating amplitude, is evaluated at 30 minutes post compound addition.

immature cardiomyocytes = details: T3 treatment of immature cardiomyocytes; cited from earlier work
[2] = spontaneous beating cardiomyocytes
[3] = FIG. 8 panel, functional matured iCell cardiomyocytes after pacing, representative concentrations

SMILES: CC(C)NCC(O)c1ccc(O)c(O)c1 (stereo not shown) [isoproterenol]
- beating rate (iPSC cardiomyocytes; chronically paced cardiomyocytes (1, 1.5, 2 Hz, 1 week each)): increase
- beating amplitude (positive inotropic effect) (iPSC cardiomyocytes; chronically paced cardiomyocytes): increase
- beating amplitude (positive inotropic effect) (iPSC cardiomyocytes; [2]): only observed in paced cells
- beating rate (iPSC cardiomyocytes; [2]): increase
- chronotropic effect [1, 3]: positive chronotropic effect

SMILES: Cc1[nH]c(=O)c(C#N)cc1-c1ccncc1 [milrinone]
- beating rate ([1]; chronically paced cardiomyocytes, 30 minutes post compound addition): slightly increased
- beating amplitude ([1]; electrically paced cardiomyocytes, 30 minutes post compound addition, FIG. 7A): significantly increased
- beating rate ([1]; spontaneous beating cardiomyocytes, 30 minutes post compound addition): slightly increased

SMILES: N[C@@H](Cc1cc(I)c(Oc2ccc(O)c(I)c2)c(I)c1)C(=O)O [T3, Tri-iodo-L-thryonine]
- calcium handling properties (immature cardiomyocytes): enhanced
- cardiomyocyte size (immature cardiomyocytes): increased
- contractile force generation (immature cardiomyocytes): increased
- maximal mitochondrial respiration capacity (immature cardiomyocytes): increased
- proliferation (immature cardiomyocytes): decreased
- sarcomere length (immature cardiomyocytes): increased

SMILES: COC(=O)C1=C(C)NC(C)=C([N+](=O)[O-])C1c1ccccc1C(F)(F)F (stereo not shown) [bayK]
- inotropic effect [1, 3]: positive inotropic effect

SMILES: C[C@H]1O[C@@H](O[C@H]2[C@@H](O)C[C@H](O[C@H]3[C@@H](O)C[C@H](O[C@H]4CC[C@@]5(C)[C@H](CC[C@@H]6[C@@H]5C[C@@H](O)[C@]5(C)[C@@H](C7=CC(=O)OC7)CC[C@]65O)C4)O[C@@H]3C)O[C@@H]2C)C[C@H](O)[C@@H]1O [digoxin]
- inotropic effect [1, 3]: positive inotropic effect
